Data published in BindingDB's records for doi:10.7270/Q27P8WT7 (Srmlsc, 2008).

Settings: inactive by the depositor's call

EC50 | SMILES
64.2 µM | COc1ccc(-c2cn3cc(C(F)(F)F)cc(Cl)c3n2)cc1 [4-[8-chloro-6-(trifluoromethyl)imidazo[1,2-a]pyridin-2-yl]phenyl methyl ether]
36.7 µM | CCOC(=O)c1nn(-c2ccc(C)cc2)cc1C(=O)c1ccccc1 [4-benzoyl-1-(4-methylphenyl)-3-pyrazolecarboxylic acid ethyl ester]
46.5 µM | COc1ccc(C(=O)Oc2c(CN3CCOCC3)cc(Cl)c3cccnc23)cc1 [4-methoxybenzoic acid [5-chloro-7-(4-morpholinylmethyl)-8-quinolinyl] ester]
53.8 µM | Oc1ccc(CN2CCCCC2)c2cccnc12 [5-(1-piperidinylmethyl)-8-quinolinol]
80.1 µM | Cc1cccc(-c2cc(N)n(-c3ccccc3)n2)c1 [5-(3-methylphenyl)-2-phenyl-3-pyrazolamine]
69.3 µM | Cn1nnc(-c2ccc(OCc3ccccc3F)cc2)n1 [5-[4-(2-fluorobenzyl)oxyphenyl]-2-methyl-tetrazole]
69.9 µM | COc1ccc2c(c1OC)C(=O)N(c1cccc(C(F)(F)F)c1)C2 [6,7-dimethoxy-2-[3-(trifluoromethyl)phenyl]-3H-isoindol-1-one]
39.9 µM | CCCNC(=O)c1noc2c1CCc1cc(OC)ccc1-2 [7-methoxy-N-propyl-4,5-dihydrobenz[g]indoxazene-3-carboxamide]
49.5 µM | COc1ccc(OC(=O)c2cnn(-c3ccccc3)c2C)cc1 [(4-methoxyphenyl) 5-methyl-1-phenyl-pyrazole-4-carboxylate]
33.6 µM | Cc1ccc(NC(=O)c2noc3c2CCCCC3)cc1 [MLS000087401]
42.9 µM | CN(C)/C=N/c1ccc2nn(-c3ccccc3)nc2c1 [MLS000105162]
89.6 µM | S=C(c1ccc(-c2cccc(Cl)c2)o1)N1CCOCC1 [MLS000107692]
84.4 µM | Cc1cccc(NC(=O)c2ccc3ccccc3n2)c1C [MLS000569762]
46.4 µM | CC(C)=CC(=O)Nc1ccc(Br)cc1 [N-(4-bromophenyl)-3-methylbut-2-enamide]

The remaining lines, values behind:

SMILES | EC50
Cc1ccc(OCc2nnc(-c3ccccn3)[nH]2)cc1 | 78.8 µM
COc1ccc(C2=NOC(CN3C(=O)c4ccccc4S3(=O)=O)C2)cc1 (stereo not drawn) | 55 µM
Nc1ccccc1C(=O)/C=C/c1ccc2c(c1)OCO2 | 55.6 µM
COc1ccc2c3c(cccc13)C(=O)N(O)C2=O | 41.6 µM
Fc1ccc(NC(=S)Nc2nccs2)cc1 [1-(4-fluorophenyl)-3-(1,3-thiazol-2-yl)thiourea] | 35.6 µM
Brc1ccccc1OCCCn1cnc2ccccc21 [1-[3-(2-bromanylphenoxy)propyl]benzimidazole] | 62.3 µM
CCCCNC(=S)Nc1ccc(-c2nc3ccc(C)cc3s2)cc1 [1-butyl-3-[4-(6-methyl-1,3-benzothiazol-2-yl)phenyl]thiourea] | 39.6 µM
O=C(Nc1ccccc1)c1ccc2c(c1)OCCO2 [2,3-Dihydro-benzo[1,4]dioxine-6-carboxylic acid phenylamide] | 41.7 µM
O=C1CCCc2nc(N3CCc4ccccc43)ncc21 [2-(2,3-dihydroindol-1-yl)-7,8-dihydro-6H-quinazolin-5-one] | 84.7 µM
NC(=NOC(=O)COc1ccccc1Cl)c1ccccn1 [2-(2-chlorophenoxy)acetic acid [(Z)-[amino(2-pyridinyl)methylidene]amino] ester] | 39.1 µM
NC(=O)Cc1ccc2sc(-c3ccccc3)nc2c1 [2-(2-phenyl-1,3-benzothiazol-5-yl)acetamide] | 36.5 µM
Cc1ccc2sc(NC(=O)CSc3nc(C)cc(C)c3C#N)nc2c1 [2-(3-Cyano-4,6-dimethyl-pyridin-2-ylsulfanyl)-N-(5-methyl-benzothiazol-2-yl)-acetamide] | 31.8 µM
Cc1ccn2c(c1)nc(=S)n2C(=O)c1ccco1 [2-furanyl-(7-methyl-2-sulfanylidene-[1,2,4]triazolo[1,5-a]pyridin-3-yl)methanone] | 56.4 µM
Cc1ccnc(NC(=O)c2cc3ccccc3oc2=O)c1 [2-keto-N-(4-methyl-2-pyridyl)chromene-3-carboxamide] | 47.2 µM
O=c1oc(-c2ccccc2)nc2sc3c(c12)CCCC3 [2-phenyl-5,6,7,8-tetrahydro-4H-[1]benzothieno[2,3-d][1,3]oxazin-4-one] | 69.5 µM
COc1nc(-c2ccccc2)nnc1-c1ccccc1 [3,6-diphenyl-1,2,4-triazin-5-yl methyl ether] | 38.9 µM
COc1ccc(C2=Nc3ccccc3OC2)cc1 [3-(4-methoxyphenyl)-2H-1,4-benzoxazine] | 45.6 µM
c1ccc(CSc2ccc(-c3ccccn3)nn2)cc1 [3-(benzylthio)-6-(2-pyridyl)pyridazine] | 45.1 µM
CCOc1ccc(C(=O)Nc2cccc(C(=O)O)c2)cc1Cl [3-[(3-chloranyl-4-ethoxy-phenyl)carbonylamino]benzoic acid] | 47.8 µM
CCn1cnc2sc(-c3ccccc3)cc2c1=O [3-ethyl-6-phenyl-4-thieno[2,3-d]pyrimidinone] | 35.2 µM
O=C(Nc1ccc2c(c1)CCC2)c1cccc(F)c1 [3-fluoro-N-indan-5-yl-benzamide] | 50.2 µM
Nc1nc(-c2ccc3ccccc3c2)cs1 [4-(2-naphthalenyl)-2-thiazolamine] | 35.5 µM
Nc1c(-c2ccccc2)cnn1-c1ccc(C(=O)O)cc1 [4-(5-amino-4-phenyl-1-pyrazolyl)benzoic acid] | 46.2 µM
CCCCSc1ncc(C(=O)OCC)c(N)n1 [4-Amino-2-butylsulfanyl-pyrimidine-5-carboxylic acid ethyl ester] | 46.2 µM
